Assays:
[1] = system: S. aureus; experiment: Bacterial growth in inoculated apheresis platelet unit, quantitative culture; type: cell-based; settings: platelets exposed to 99% CO2 for 10 minutes
Experimental: (§1) Outdated apheresis platelet unit (day 6) was obtained from the Mayo Clinic components laboratory. About half of the platelet unit was perfused with 99% CO2 gas for 10 minutes with mixing. Control samples without CO2 exposure and CO2-treated samples of 10 mL volume were inoculated with clinical isolates of eight different organisms. Control and CO2 samples were spiked with identical bacterial loads. Quantitative culture using 5% sheep blood agar plates was conducted immediately following inoculation (0 hours) and at 24 and 48 hour time points. Time 0 hour inoculation load was selected to compensate for observed “spike and die” in outdated apheresis platelet units. The time 0 hour value represented the value of the initial spike.

[2] = system: E. coli; experiment: as above; type: cell-based; settings: platelets exposed to 99% CO2 for 10 minutes
Experimental: as §1

[3] = system: Corynebacterium; experiment: as above; type: cell-based; settings: platelets exposed to 99% CO2 for 10 minutes
Experimental: as §1

[4] = system: S. pyogenes; experiment: as above; type: cell-based; settings: platelets exposed to 99% CO2 for 10 minutes
Experimental: as §1

[5] = system: Bacillus cereus; experiment: as above; type: cell-based; settings: platelets exposed to 99% CO2 for 10 minutes
Experimental: as §1

[6] = system: Enterobacter cloacae; experiment: as above; type: cell-based; settings: platelets exposed to 99% CO2 for 10 minutes
Experimental: as §1

[7] = system: S. epidermidis; experiment: as above; type: cell-based; settings: platelets exposed to 99% CO2 for 10 minutes
Experimental: as §1

[8] = system: Klebsiella oxytoca; experiment: as above; type: cell-based; settings: platelets exposed to 99% CO2 for 10 minutes
Experimental: as §1

[9] = system: red blood cell preparation; experiment: Storage of red blood cell preparations in blood bags with CO2: pCO2, lactate, glucose and pH levels; type: cell-based; settings: for Glucose / Lactate: red blood cell preparation
Experimental: Red blood cells were collected and processed using standard techniques and stored in standard blood bags. Prior to collecting the red blood cells, an empty blood bag containing anti-coagulated citrate phosphate dextrose with adenine (AS1) was flushed with CO2 for one minute. The collection bag was then filled with blood from a donor. Next, 50 cubic centimeters of CO2 were added to the bag via the sterile docking port. The bag was gently inverted for 30 seconds and then placed upright. Using an empty syringe, the 50 cubic centimeters of air/CO2 was removed from the bag through the sterile docking port. The controls were red blood cell preparations placed in blood bags not flushed with CO2 and not exposed to 50 cubic centimeters of CO2.
The control and CO2 treated red blood cell preparations were tested for pCO2 (or pO2) levels, lactate levels, glucose levels, and pH levels at days 0, 14, and 21 (Table 1). […] This fall in pH is reversible, and pH levels can return to normal values of […] when normal pCO2 levels (e.g., 40-60 mmHg) are re-established.

[10] = system: Bacillus cereus; experiment: Bacterial growth in spiked PRP, quantitative culture after 30 hours; type: cell-based; settings: PRP spiked with 10 CFU, approximately 30 hours at room temperature
Experimental: (§2) Clinical isolates of Bacillus cereus and Pseudomonas aeruginosa were spiked into control and CO2 treated platelets at a concentration of 10 CFU (i.e., 10 bacteria total, not 10 CFU/mL). The platelets were stored for approximately 30 hours at room temperature on a platelet agitator. After 30 hours, quantitative culture was performed on serial dilutions of the platelet sample on 5% sheep blood agar plates.

[11] = system: Pseudomonas aeruginosa; experiment: as above; type: cell-based; settings: PRP spiked with 10 CFU, approximately 30 hours at room temperature
Experimental: as §2

[12] = system: platelets; experiment: ATP secretion of platelets induced with 1 μM thrombin (Zylux luminometer); type: cell-based, human; settings: after 24 hours storage at room temperature
Experimental: ATP secretion was performed using a Zylux luminometer where the secretion was induced using 1 μM thrombin. […] However, the CO2 treated platelets had approximately 80% of baseline secretion after 24 hours storage.

[13] = system: platelets in platelet-rich plasma (PRP); experiment: Platelet aggregation of PRP by optical aggregometry after equilibration with 99% CO2; type: cell-based, human
Experimental: Fresh human whole blood was drawn into 3.2% sodium citrate, and platelet-rich plasma (PRP) was prepared. Control citrated PRP was stored at room temperature in a polypropylene tube. CO2 was exposed to the air/fluid interface of PRP using a 99.9% CO2 tank. CO2 was administered for approximately 60 seconds during which time the pH dropped from an average value of 7.4 to 6.4.
Using a Chronolog 700 platelet aggregometer, platelet aggregation was performed pre- and post-CO2 to ADP, AA, and Epi. Platelet aggregometry was carried out as described elsewhere (Born and Cross, J. Physiol., 168:178-195 (1963)). The assay was performed at 37° C. with a sample stir speed of 1200 r.p.m. Each sample consisted of 450 μL platelet rich plasma.
In another study, the impact of CO2 on platelet function was explored by equilibrating platelet-rich plasma (PRP) with 99% CO2. The PRP was prepared by low-speed centrifugation of blood anticoagulated with 3.2% sodium citrate and kept in capped polypropylene tubes. Platelet function was measured by optical aggregometry with ADP and epinephrine as triggers. Equilibration with CO2 under a positive flow of gas was monitored by the fall in pH from 7.2 to 6.4, which typically occurs within 60 seconds. Degassing of CO2 by a flow of room air over the PRP was verified by the return to pH 7.2. Immediately after removal of the PRP from the CO2 atmosphere, aggregation to ADP and epinephrine was suppressed (FIG. 18, first set). When the samples had returned to pH 7.2, aggregation to both triggers was restored (FIG. 18, center set).

[14] = storage with CO2, compared to controls

## O=C=O [CO2]
[1]; 0 hours (initial spike)
  bacterial growth: 1.17E+03 CFU/mL
[1]; 24 hours
  bacterial growth: 3.20E+03 CFU/mL
[1]; 48 hours
  bacterial growth: 2.70E+04 CFU/mL
[2]; 24 hours
  bacterial growth: 1.80E+02 CFU/mL
[2]; 48 hours
  bacterial growth: 5.20E+03 CFU/mL
[3]; 0 hours (initial spike)
  bacterial growth: 7.90E+02 CFU/mL
[3]; 24 hours
  bacterial growth: 2.70E+02 CFU/mL
[3]; 48 hours
  bacterial growth: 4.20E+02 CFU/mL
[4]; 0 hours (initial spike)
  bacterial growth: 1.55E+03 CFU/mL
[4]; 24 hours
  bacterial growth: 1.20E+05 CFU/mL
[4]; 48 hours
  bacterial growth: 8.00E+07 CFU/mL
[5]; 0 hours (initial spike)
  bacterial growth: 1.00E+01 CFU/mL
[5]; 24 hours
  bacterial growth: no
[5]; 48 hours
  bacterial growth: no
[6]; 0 hours (initial spike)
  bacterial growth: 1.22E+03 CFU/mL
[6]; 24 hours
  bacterial growth: 1.20E+06 CFU/mL
[6]; 48 hours
  bacterial growth: 8.60E+07 CFU/mL
[7]; 0 hours (initial spike)
  bacterial growth: 6.10E+02 CFU/mL
[7]; 24 hours
  bacterial growth: 3.30E+02 CFU/mL
[7]; 48 hours
  bacterial growth: 4.20E+02 CFU/mL
[8]; 0 hours (initial spike)
  bacterial growth: 8.10E+02 CFU/mL
[8]; 24 hours
  bacterial growth: 1.15E+04 CFU/mL
[8]; 48 hours
  bacterial growth: 4.30E+05 CFU/mL
[9]; day 0 of storage
  Glucose: 571 mg/dL
  Lactate: 1.2 µmol/mL
[9]; day 14 of storage
  Glucose: 503 mg/dL
  Lactate: 5 µmol/mL
[9]; day 21 of storage
  Glucose: 478 mg/dL
  Lactate: 5.3 µmol/mL
[9]; [14]
  glucose consumption: inhibition
  lactate formation: inhibition
[10]
  bacterial growth: no growth
[11]
  bacterial growth: no growth
[12]
  ATP secretion, of baseline: approximately 80%
[13]; after 24 hours under CO2
  aggregation: equivalent to that of controls
[13]; after samples had returned to pH 7.2
  aggregation to ADP and epinephrine: restored
[13]; immediately after removal of the PRP from the CO2 atmosphere
  aggregation to ADP and epinephrine: suppressed
